Assay results: patent publication US20170334899A1, “AMINO-SUBSTITUTED ISOTHIAZOLES” (Bayer Pharma Aktiengesellschaft, priority 2014, published 2017)

Key:
Assay type in all cases: cell-based
B16F10 = test: Proliferation assay (crystal violet), B16F10; settings: Mus musculus, B16-F10, 96 h; B16F10 cells; 4 days incubation; crystal violet staining; read-out: IC50 inhibition of proliferation, B16F10
Outline: (§1)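 Absorbance at 595 nm of crystal-violet-stained cells after 4 days' exposure to 0.001–10 μM compound (0.5% DMSO). Values normalized to a day-0 plate (0%) and untreated cells (100%); IC50 by 4-parameter fit.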

Caco-2 = test: Proliferation assay (crystal violet), Caco-2; settings: Homo sapiens, 96 h; Caco-2 cells; 4 days incubation; crystal violet staining; read-out: IC50 inhibition of proliferation, Caco2
Outline: as §1

NCI-H460 = test: Proliferation assay (crystal violet), NCI-H460; settings: Homo sapiens, 96 h; NCI-H460 cells; 4 days incubation; crystal violet staining; read-out: IC50 inhibition of proliferation, NCI-H460
Outline: as §1

HeLa-MaTu-ADR = test: Proliferation assay (crystal violet), HeLa-MaTu-ADR; settings: 96 h; HeLa-MaTu-ADR cells; 4 days incubation; crystal violet staining; read-out: IC50 inhibition of proliferation, HeLa-MaTu-ADR
Outline: as §1

DU145 = test: Proliferation assay (crystal violet), DU145; settings: Homo sapiens, DU-145, 96 h; DU145 cells; 4 days incubation; crystal violet staining; read-out: IC50 inhibition of proliferation, DU145
Outline: as §1

SMILES: COCCOc1ccc(NC(=O)c2c(C)nsc2Nc2nc3c(C(F)(F)F)cccc3s2)cc1F [Example 1, N-[3-Fluoro-4-(2-methoxyethoxy)phenyl]-3-methyl-5-{[4-(trifluoromethyl)-1,3-benzothiazol-2-yl]amino}-1,2-thiazole-4-carboxamide]
- IC50 (B16F10): 0.41 µM
- IC50 (Caco-2): 0.26 µM
- IC50 (NCI-H460): 0.24 µM
- IC50 (HeLa-MaTu-ADR): 0.37 µM
- IC50 (DU145): 0.44 µM

SMILES: Cc1nsc(Nc2ccc(C#N)cn2)c1C(=O)Nc1ccc(OC2CCCN(C(=O)OC(C)(C)C)C2)nc1 (stereo not drawn) [Example 36, tert-Butyl 3-({5-[({5-[(5-cyanopyridin-2-yl)amino]-3-methyl-1,2-thiazol-4-yl}-carbonyl)amino]pyridin-2-yl}oxy)piperidine-1-carboxylate]
- IC50 (B16F10): 0.55 µM
- IC50 (Caco-2): 0.33 µM
- IC50 (NCI-H460): 0.4 µM
- IC50 (HeLa-MaTu-ADR): 0.33 µM
- IC50 (DU145): 0.86 µM

SMILES: Cc1nsc(Nc2ccc(C#N)cn2)c1C(=O)Nc1ccc(OC2CCCN(CC(F)(F)F)C2)nc1 (stereo not drawn) [Example 40, 5-[(5-Cyanopyridin-2-yl)amino]-3-methyl-N-(6-{[1-(2,2,2-trifluoroethyl)piperidin-3-yl]oxy}pyridin-3-yl)-1,2-thiazole-4-carboxamide]
- IC50 (B16F10): 0.78 µM
- IC50 (Caco-2): 0.5 µM
- IC50 (NCI-H460): 0.36 µM
- IC50 (HeLa-MaTu-ADR): 0.32 µM
- IC50 (DU145): 0.66 µM

SMILES: Cc1nsc(Nc2cnc3ccccc3n2)c1C(=O)Nc1cccc(C(=O)OC(C)(C)C)c1 [Example 49, tert-Butyl 3-({[3-methyl-5-(quinoxalin-2-ylamino)-1,2-thiazol-4-yl]carbonyl}amino)-benzoate]
- IC50 (B16F10): 0.91 µM
- IC50 (Caco-2): 0.65 µM
- IC50 (NCI-H460): 0.46 µM
- IC50 (HeLa-MaTu-ADR): 0.59 µM
- IC50 (DU145): 1.1 µM

SMILES: Cc1nsc(Nc2ccc(C#N)cn2)c1C(=O)Nc1ccc(OC2CCCN(CC(F)F)C2)nc1 (stereo not drawn) [Example 39, 5-[(5-Cyanopyridin-2-yl)amino]-N-(6-{[1-(2,2-difluoroethyl)piperidin-3-yl]oxy}-pyridin-3-yl)-3-methyl-1,2-thiazole-4-carboxamide]
- IC50 (B16F10): 2.2 µM
- IC50 (Caco-2): 1.5 µM
- IC50 (NCI-H460): 0.99 µM
- IC50 (HeLa-MaTu-ADR): 0.81 µM
- IC50 (DU145): 2 µM

SMILES: Cc1nsc(Nc2cnc(C(F)(F)F)cn2)c1C(=O)Nc1ccc(OC2CCN(C(=O)OC(C)(C)C)CC2)nc1 [Example 5, tert-Butyl 4-[(5-{[(3-methyl-5-{[5-(trifluoromethyl)pyrazin-2-yl]amino}-1,2-thiazol-4-yl)carbonyl]amino}pyridin-2-yl)oxy]piperidine-1-carboxylate]
- IC50 (B16F10): 0.35 µM
- IC50 (Caco-2): 0.35 µM
- IC50 (NCI-H460): 0.25 µM
- IC50 (HeLa-MaTu-ADR): 0.37 µM
- IC50 (DU145): 0.52 µM
